Measured values as given in ChEMBL document CHEMBL1133725, “Modeling of kappa-opioid receptor/agonists interactions using pharmacophore-based and docking simulations” (J Med Chem, 2000).

Experiments:
[1] = target: T1, Kappa-type opioid receptor (Cavia porcellus, UniProt P41144); test: Inhibition of [3H]EKC binding to Opioid receptor kappa 1 in guinea pig forebrain
[2] = target: T1, Kappa-type opioid receptor; test: Inhibition of [3H]U-69593 binding to Opioid receptor kappa 1 in guinea pig brain homogenates; type: tissue-based
[3] = target: T1, Kappa-type opioid receptor; test: Inhibition of [3H]diprenorphine binding to Opioid receptor kappa 1 in guinea pig cerebellar fraction

T1 sequence (P41144 whole entry): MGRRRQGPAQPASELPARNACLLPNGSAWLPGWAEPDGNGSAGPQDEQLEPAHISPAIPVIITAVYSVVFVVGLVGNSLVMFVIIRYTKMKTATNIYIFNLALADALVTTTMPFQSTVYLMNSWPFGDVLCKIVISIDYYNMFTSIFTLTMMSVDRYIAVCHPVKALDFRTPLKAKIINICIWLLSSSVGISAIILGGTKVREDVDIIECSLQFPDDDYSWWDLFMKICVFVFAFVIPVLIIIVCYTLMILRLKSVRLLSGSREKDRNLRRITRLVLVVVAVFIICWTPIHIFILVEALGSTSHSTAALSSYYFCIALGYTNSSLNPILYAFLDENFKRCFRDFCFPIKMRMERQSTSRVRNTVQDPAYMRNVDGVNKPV

| Compound | Ki [2] [nM] | further results |
| --- | --- | --- |
| O=C1[C@@H](c2ccc(Cl)c(Cl)c2)CCN1[C@H]1CCCC[C@@H]1N1CCCC1 | – | Ki [1]: 10 nM |
| O=C1N(c2ccc(Cl)c(Cl)c2)CCCN1[C@H](CN1CCCC1)c1ccccc1 | 0.42 | – |
| COC(=O)[C@]1(c2ccccc2)C[C@@H]1CN1CC[C@@]2(C)c3cc(O)ccc3CC1[C@@H]2C | – | Ki [3]: 240 nM |
| CN1CCCC1[C@@H]1CCCCN1C(=O)Cc1ccc(Cl)c(Cl)c1 (stereo not given in full) | 0.33 | – |
| O=C([C@@H]1CCc2cc(Cl)c(Cl)cc21)N1CCSC[C@H]1CN1CCCC1 | 0.44 | – |
